Data on 4 compounds can be found in patent US6469132B1, “Diblock copolymer and use thereof in a micellar drug delivery system” (McGill University, priority 1999, dated 2002).

“And” between values parts separate entries of the source, which are not always exact repeats. Equal values may be shown once.

Series [1] deals with PC 12 rat pheochromocytoma cells. As to the kind of experiment: Cell differentiation assay: neurite-like outgrowth. The format is cell-based. The method, then:
In each case, the degree of neurite-like outgrowth was taken to be 100% in the control wells of untreated PC 12 cells. The degree of differentiation in cell wells in the presence of NGF and/or drug is expressed as a percentage relative to 100% for the control.
PC 12 cells were plated in 24 well plates at 37° C. in 5% CO2 and incubated in DMEM supplemented with 5% fetal bovine serum and the treatments described below. Neurite-like outgrowth in PC 12 cells was detected after a 48 hour period using a Nikon light microscope. For each data point 5 fields of 250-300 cells/well were analyzed. For the quantitation of neurite-like outgrowth the PC 12 cells were considered to have outgrowth if their processes were longer than the length of the diameter of the cell.
A range of concentrations of either NGF (0.1 to 50 ng/mL), FK506 (1 to 500 nM) or L,685-818 (1 to 500 nM) alone or combinations of 0.5 or 5 ng/mL of NGF with either FK506 (5 to 500 nM) or L-685,818 (50 nM to 10 μM), were incubated with the PC 12 cells for a 48 hour incubation period. The wells with untreated cells were used as controls.
The unfiltered solution of the micelle incorporated drug was added to the cell wells at different concentrations: a 10 μL aliquot of a FK506-micelle solution was added to each 0.5 mL cell well. The 10 μL aliquot was produced by diluting the 1.1×10^−5 moles/L FK506-PCL20-b-PEO44 micelle (1% w/w) stock solution. The final concentration of FK506 in the cell well was made to range from […]. In the same manner, a 10 uL aliquot of the L-685,818 micelle solution was added to each 0.5 mL cell well, such that final concentration in the well was made to range from 10 nM to 1 μM. In each case, 5 ng/mL NGF was also added to each cell well. Several controls were also used where the cells were treated with 5 ng/mL of NGF alone, 1% (w/w) PCL20-b-PEO44 micelles alone, 1% (w/w) PCL20-b-PEO44 micelles containing 1 nM FK 506 without NGF or 1% (w/w) PCL20-b-PEO44 micelles containing 10 nM L-685,818.

Series [2] is described as follows: Partition coefficient for pyrene between PCL-b-PEO micelles and water (fluorescence I3/I1 method). To be noted: extrapolation to 100% water content; PCL-b-PEO (20-b-44) micelles. The format is physicochemical. The method, then:
The degree of non-covalent incorporation of physical entrapment of a hydrophobic drug into a micelle is determined by the partition coefficient of the drug between the micellar core and the surrounding aqueous medium. The affinity of the PCL-b-PEO micelles for lipophilic compounds was assayed by the determination of the Kv for the hydrophobic model compound, pyrene, between the PCL-b-PEO micelles and water. This method has been previously used to determine the Kv of pyrene between polystyrene-b-polyacrylic acid micelles and water. This fluorescence method is based on pyrene's sensitivity to the hydrophobicity of its microenvironment. […]
The fluorescence method used to determine the partition coefficient for pyrene between a mixed water/DMF solvent mixture (60-90% water content) and block copolymer micelles (concentration PCL20-b-PEO44 ranges from 1×10^−6 to 1×10^−2 g/g), at 25° C., has been described in detail elsewhere (Zhao, J. et al. (1997) Macromolecules, 30:7143-7150). […] Briefly, the intensity ratio of vibrational band three to vibrational band one (I3/I1) in the fluorescence emission spectrum of pyrene reflects the polarity of the surrounding environment of the probe molecules. […]
Steady-state fluorescent spectra were measured using a SPEX Fluorolog 2 spectrometer in the right-angle geometry (90° collecting optics). […] For fluorescence emission spectra, λεξ was 339 nm. […]

Series [3] has as its system PC 12 cells. Description: Cell uptake of pyrene incorporated micelles. To be noted: 390 nm, zero time = 1, PCL14-b-PEO44 micelles. The format is cell-based, rat. The method, then: The in vitro biocompatibility of the PCL-b-PEO micelles (14-b-44, 20-b-44) was tested by incubating the micelles with a wide range of cell lines for both 24-hour and 48-hour periods. The Trypan blue and Alamar blue survival assays were then used to quantify the survival rates in the presence of the PCL-b-PEO micelles. The capability of the PCL-b-PEO micelle system to deliver a hydrophobic compound was first tested in vitro using pyrene as a model compound. The pyrene incorporated PCL-b-PEO micelles were incubated with PC 12 cells over a 24-hour period. At 0, 4, 8 and 24 hours, samples of the supernatant were studied by fluorescence in order to determine the quantity of pyrene remaining in the supernatant at each time point. Likewise, at each time point, cells were isolated and their fluorescence was examined under the fluorescence microscope in order to determine if the decrease in the fluorescence within the supernatant was accompanied by an increase in fluorescence within the cells.
Pyrene incorporated micelles were prepared such that a total of 2×10^−7 moles/L of pyrene had been added to the 1% (w/w) micelle (PCL14-b-PEO44) solution, An aliquot of the micelle solution was incubated with PC 12 cells cultured in DMEM at 37° C., 5% CO2. At time 0, and 4, 8 and 24 hours, the fluorescence intensity (Perkin Elmer LS 50) of the supernatant was measured at 390 nm to determine the amount of pyrene remaining in the supernatant. Controls consisting of medium or medium and micelles alone were also measured. Following the removal of the aliquot of supernatant at each time point, the remaining supernatant was removed and the cells were washed three times with 100 uL of phosphate buffer saline. The cells were then gently scraped and fixed with aquamount on a slide and analyzed using a fluorescence microscope (Olympus BH-2).

The conditions of series [4]: polystyrene-b-polyacrylic acid micelles; Zhao et al. 1997; cited from earlier work.
[5] abbreviates: drug alone 1 to 500 nM, 48 h, untreated control = 100%.

In the case of NGF: nerve growth factor, the “degree of neurite-like outgrowth” value is 160±5% and 180±6% in series [1] (5 ng/mL NGF alone, 48 h, untreated control = 100%); 110-260% in series [1] (NGF alone 0.1 to 50 ng/mL, 48 h, untreated control = 100%).
With `c1cc2ccc3cccc4ccc(c1)c2c34` [pyrene], the “partition coefficient (Kv) for pyrene between PCL-b-PEO micelles and water” value in series [2] is listed as ~10^2. Besides, the “relative fluorescence intensity of pyrene in supernatant” value is recorded as 0.70 (±0.05) in series [3] (after 4 hours), 0.60 (±0.05) in series [3] (after 8 hours) and 0.55 (±0.05) in series [3] (after 24 hours). Besides, the “partition coefficient for pyrene between PS-b-PAA micelles and water” value in series [4] was ~10^5.
For the compound `CC[C@@H]1/C=C(\C)[C@@H](O)[C@H](C)C[C@H](OC)[C@H]2O[C@@](O)(C(=O)C(=O)N3CCCC[C@H]3C(=O)O[C@H](/C(C)=C/[C@@H]3CC[C@@H](O)[C@H](OC)C3)[C@H](C)[C@@H](O)CC1=O)[C@H](C)C[C@@H]2OC` [L-685,818], the “degree of neurite-like outgrowth” value in series [1] (setting [5]) is roughly 100%. Also, the “effect of drug concentration on degree of differentiation” value in series [1] (drug alone, no NGF, 48 h) was “no effect on the degree of differentiation”. Besides, the “potentiation of the effect of NGF on neurite-like outgrowth” value in series [1] (with 5 ng/mL NGF, PC 12 cell cultures) was “potentiate the effect of NGF on the outgrowth of PC 12 cells”.
Take `C=CC[C@@H]1/C=C(\C)C[C@H](C)C[C@H](OC)[C@H]2O[C@@](O)(C(=O)C(=O)N3CCCC[C@H]3C(=O)O[C@H](/C(C)=C/[C@@H]3CC[C@@H](O)[C@H](OC)C3)[C@H](C)[C@@H](O)CC1=O)[C@H](C)C[C@@H]2OC` [FK506]: the “degree of neurite-like outgrowth” value in series [1] (setting [5]) is roughly 100%; in series [1] (free FK506 1-100 nM with 5 ng/mL NGF, 48 h), 220-380%. The “dose adequate to potentiate neurite-like outgrowth” value in series [1] (in vitro, PC12 cell cultures) amounted to 1 nM.
